T1: Pancreatic triacylglycerol lipase (Sus scrofa, UniProt P00591)
T1 sequence (P00591 whole entry): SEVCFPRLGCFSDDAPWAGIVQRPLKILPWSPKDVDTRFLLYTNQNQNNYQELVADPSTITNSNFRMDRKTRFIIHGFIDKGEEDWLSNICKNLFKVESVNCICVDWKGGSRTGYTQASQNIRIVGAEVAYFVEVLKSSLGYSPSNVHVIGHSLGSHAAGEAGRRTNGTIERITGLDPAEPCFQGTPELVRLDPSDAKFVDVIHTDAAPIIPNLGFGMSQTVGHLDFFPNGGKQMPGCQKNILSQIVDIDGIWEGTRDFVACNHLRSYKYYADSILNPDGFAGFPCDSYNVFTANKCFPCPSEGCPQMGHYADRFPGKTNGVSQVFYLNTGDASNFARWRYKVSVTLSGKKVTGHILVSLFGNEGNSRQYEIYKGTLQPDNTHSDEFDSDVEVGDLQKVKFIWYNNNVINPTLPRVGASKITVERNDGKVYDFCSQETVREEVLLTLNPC


Tests used:
Sus scrofa = species on record: Sus scrofa; assay: Inhibition of porcine pancreatic lipase type 2 assessed as residual enzyme activity using tributyrin as substrate preincubated for 30 mins followed by substrate addition measured for 5 mins
[1] = molecular target: T1, Pancreatic triacylglycerol lipase; assay: Inhibition of porcine pancreatic lipase using p-nitrophenyl butyrate as substrate preincubated for 5 mins followed by substrate addition measured after 5 mins by spectrophotometric analysis
[2] = molecular target: T1, Pancreatic triacylglycerol lipase; assay: Binding affinity to porcine pancreatic lipase using p-nitrophenyl butyrate as substrate by dixon plot analysis
[3] = compound: O=C1S/C(=C\c2cn(-c3ccccc3)nc2-c2ccc(Cl)cc2)C(=O)N1Cc1ccc([N+](=O)[O-])cc1; assay: Reversible competitive inhibition of porcine pancreatic lipase assessed as Km for substrate at 10 uM in presence of varying levels of p-nitophenyl butyrate by double reciprocal Lineweaver-burk plot analysis (reference value: 69.32 microM); conditions: Sus scrofa
[4] = compound: O=C1S/C(=C\c2cn(-c3ccccc3)nc2-c2ccc(Cl)cc2)C(=O)N1Cc1ccc([N+](=O)[O-])cc1; assay: Reversible competitive inhibition of porcine pancreatic lipase assessed as Km for substrate at 5 uM in presence of varying levels of p-nitophenyl butyrate by double reciprocal Lineweaver-burk plot analysis (reference value: 69.32 microM); conditions: Sus scrofa
[5] = compound: O=C1S/C(=C\c2cn(-c3ccccc3)nc2-c2ccc(Cl)cc2)C(=O)N1Cc1ccc([N+](=O)[O-])cc1; assay: Reversible competitive inhibition of porcine pancreatic lipase assessed as Km for substrate at 2.5 uM in presence of varying levels of p-nitophenyl butyrate by double reciprocal Lineweaver-burk plot analysis (reference value: 69.32 microM); conditions: Sus scrofa
[6] = compound: O=C1S/C(=C\c2cn(-c3ccccc3)nc2-c2ccc(Cl)cc2)C(=O)N1Cc1ccc([N+](=O)[O-])cc1; assay: Reversible competitive inhibition of porcine pancreatic lipase assessed as Vmax for substrate at 10 uM in presence of varying levels of p-nitophenyl butyrate by double reciprocal Lineweaver-burk plot analysis (reference value: 0.0545 microM/min); conditions: Sus scrofa
[7] = compound: O=C1S/C(=C\c2cn(-c3ccccc3)nc2-c2ccc(Cl)cc2)C(=O)N1Cc1ccc([N+](=O)[O-])cc1; assay: Reversible competitive inhibition of porcine pancreatic lipase assessed as Vmax for substrate at 5 uM in presence of varying levels of p-nitophenyl butyrate by double reciprocal Lineweaver-burk plot analysis (reference value: 0.0545 microM/min); conditions: Sus scrofa
[8] = compound: O=C1S/C(=C\c2cn(-c3ccccc3)nc2-c2ccc(Cl)cc2)C(=O)N1Cc1ccc([N+](=O)[O-])cc1; assay: Reversible competitive inhibition of porcine pancreatic lipase assessed as Vmax for substrate at 2.5 uM in presence of varying levels of p-nitophenyl butyrate by double reciprocal Lineweaver-burk plot analysis (reference value: 0.0545 microM/min); conditions: Sus scrofa

Row | Molecule | XI50 (Sus scrofa) | IC50 [1] [µM] | further results
1 | CCCCCCCCCCC[C@@H](C[C@@H]1OC(=O)[C@H]1CCCCCC)OC(=O)[C@H](CC(C)C)NC=O | 3.72 |  | 
2 | O=C1S/C(=C\c2cn(-c3ccccc3)nc2-c2ccccc2)C(=O)N1Cc1ccc([N+](=O)[O-])cc1 | 21.8 | 12.5 | 
3 | O=C1S/C(=C\c2cn(-c3ccccc3)nc2-c2ccc([N+](=O)[O-])cc2)C(=O)N1Cc1ccc([N+](=O)[O-])cc1 | 18.7 | 8.44 | 
4 | O=C1S/C(=C\c2cn(-c3ccccc3)nc2-c2ccc(Cl)cc2)C(=O)N1Cc1ccc([N+](=O)[O-])cc1 | 10 | 4.81 | Ki [2]: 14.4 µM
5 | O=C1NC(=O)/C(=C/c2cn(-c3ccccc3)nc2-c2ccc([N+](=O)[O-])cc2)S1 | 39.5 | 17.3 | 
6 | COc1ccc(-c2nn(-c3ccccc3)cc2/C=C2\SC(=O)N(Cc3ccc([N+](=O)[O-])cc3)C2=O)cc1 | 18.1 | 9.4 | 
7 | O=C1NC(=O)/C(=C/c2cn(-c3ccccc3)nc2-c2ccccc2)S1 | 65.1 | 18.8 | 
8 | Pancreatic triacylglycerol lipase (Sus scrofa), P00591 (protein) SEVCFPRLGCFSDDAPWAGIVQRPLKILPWSPKDVDTRFLLYTNQNQNNYQELVADPSTITNSNFRMDRKTRFIIHGFIDKGEEDWLSNICKNLFKVESVNCICVDWKGGSRTGYTQASQNIRIVGAEVAYFVEVLKSSLGYSPSNVHVIGHSLGSHAAGEAGRRTNGTIERITGLDPAEPCFQGTPELVRLDPSDAKFVDVIHTDAAPIIPNLGFGMSQTVGHLDFFPNGGKQMPGCQKNILSQIVDIDGIWEGTRDFVACNHLRSYKYYADSILNPDGFAGFPCDSYNVFTANKCFPCPSEGCPQMGHYADRFPGKTNGVSQVFYLNTGDASNFARWRYKVSVTLSGKKVTGHILVSLFGNEGNSRQYEIYKGTLQPDNTHSDEFDSDVEVGDLQKVKFIWYNNNVINPTLPRVGASKITVERNDGKVYDFCSQETVREEVLLTLNPC |  |  | Km [3]: 165 µM; Km [4]: 145 µM; Km [5]: 125 µM; Vmax [6]: 0.0566 µM/min; Vmax [7]: 0.0557 µM/min; Vmax [8]: 0.0565 µM/min

More lines, in order of falling IC50 [1], values ahead:

Row | XI50 (Sus scrofa) | IC50 [1] [µM] | Molecule | further results
9 | 27.2 | 15.1 | Cc1ccc(-c2nn(-c3ccccc3)cc2/C=C2\SC(=O)NC2=O)cc1 | 
10 | 24.4 | 13 | COc1ccc(-c2nn(-c3ccccc3)cc2/C=C2\SC(=O)NC2=O)cc1 | 
11 | 25.4 | 12.9 | O=C1NC(=O)/C(=C/c2cn(-c3ccccc3)nc2-c2ccc(F)cc2)S1 | 
12 | 19.3 | 10.3 | O=C1NC(=O)/C(=C/c2cn(-c3ccccc3)nc2-c2ccc(Cl)cc2)S1 | 
13 | 19.3 | 9.87 | Cc1ccc(-c2nn(-c3ccccc3)cc2/C=C2\SC(=O)N(Cc3ccc([N+](=O)[O-])cc3)C2=O)cc1 | 
14 | 13 | 5.42 | O=C1S/C(=C\c2cn(-c3ccccc3)nc2-c2ccc(F)cc2)C(=O)N1Cc1ccc([N+](=O)[O-])cc1 | 
